These results are taken from patent publication US20120202756A1, “USE OF PRODRUGS TO AVOID GI MEDIATED ADVERSE EVENTS” (priority 2009, published 2012).

The target of series [1] is human acetylcholineesterase (Homo sapiens, UniProt P22303). In words: Human acetylcholineesterase activity in vitro assay (CEREP). It counts as biochemical.
Series [2] in a line: Stability in simulated intestinal juice (FaSSIF). Format: in vitro ADME. Particulars: FaSSIF pH 6.5, pancreatin 1%, prodrug 20 μg/mL. The procedure: (§1) To avoid direct interaction between the active drug and the gut microfloral population, the prodrug should not undergo premature chemical or enzymic cleavage back to the parent dug while within the gut lumen. To confirm this the prodrugs were incubated with USP SGF (simulated gastric fluid), FeSSIF (fed state simulated intestinal fluid) and FaSSIF (fasted state simulated intestinal fluid) and remaining prodrug and any generated active drug assayed by use of a qualified LC-MS/MS analytical method.
Method—Prodrug (20 μg/mL) in the FaSSIF cocktail comprising sodium taurocholate 3 mM, lecithin 0.75 mM, NaOH 8.7 mM, NaH2PO4. H2O 28.7 mM, NaCl 106 mM, pancreatin 1% (overall pH 6.5) was incubated for 2 h at 37° C. After acidifying the incubation to stop any reaction the amount of prodrug remaining and drug generated were determined using a qualified LC-MS/MS method.
(§2) To minimize the direct inhibitory action of this drug on gastric emptying/gut motility—and resultant nausea—the prodrug should not undergo premature chemical or enzymic cleavage back to the parent drug while within the gut lumen. To confirm this, the prodrugs were incubated with USP SGF (simulated gastric fluid), FeSSIF (fed state simulated intestinal fluid) and FaSSIF (fasted state simulated intestinal fluid) and remaining prodrug, and any generated active drug, assayed by use of a qualified LC-MS/MS analytical method.
Prodrug (20 μg/mL) in the FaSSIF cocktail comprising sodium taurocholate 3 mM, lecithin 0.75 mM, NaOH 8.7 mM, NaH2PO4. H2O 28.7 mM, NaCl 106 mM, pancreatin 1% (overall pH 6.5) was incubated for 2 h at 37° C. After acidifying the incubation to stop any reaction the amount of prodrug remaining and drug generated were determined using a qualified LC-MS/MS method.
(§3) To avoid direct interaction between the active drug and the gut, the prodrug should not undergo premature chemical or enzymic cleavage back to the parent dug while within the gut lumen. To confirm this the prodrugs were incubated with USP SGF (simulated gastric fluid), FeSSIF (fed state simulated intestinal fluid) and FaSSIF (fasted state simulated intestinal fluid) and remaining prodrug and any generated active drug assayed by use of a qualified LC-MS/MS analytical method.

Series [3] can be described thus: Stability in USP simulated gastric juice. Format: in vitro ADME. Particulars: USP SGF pH 1.1, pepsin […], prodrug 20 μg/mL. From the text: To minimize the direct inhibitory action of this drug on gastric emptying/gut motility—and resultant nausea—the prodrug should not undergo premature chemical or enzymic cleavage back to the parent drug while within the gut lumen.

Series [4] in a line: Bioavailability of donepezil from its prodrugs in the cynomolgus monkey. Particulars: relative bioavailability of donepezil vs dosing donepezil itself, male monkeys. The text has this:
(§4) Subsequent pharmacokinetic analysis was then undertaken using Win NonLin to generate the relevant PK parameters including Cmax, Tmax and AUC and T1/2.

Series [5] in a line: Bioavailability of donepezil from its prodrugs in the male beagle dog. Particulars: relative bioavailability of donepezil vs dosing donepezil itself, male dogs.
Source text: as §4

The nature of series [6]: Stability in simulated intestinal juice (FeSSIF). It counts as in vitro ADME. Particulars: FeSSIF pH 5.0, pancreatin 1%. The procedure: as §1
Pancreatin was again added at 1%.
as §2, §3

As usually defined, the IC50 is the concentration at which inhibition is half-maximal.

Where “and” joins values, the source holds several entries; their conditions need not be identical. Equal entries are not always repeated.

Sequence of human acetylcholineesterase (P22303 32-614): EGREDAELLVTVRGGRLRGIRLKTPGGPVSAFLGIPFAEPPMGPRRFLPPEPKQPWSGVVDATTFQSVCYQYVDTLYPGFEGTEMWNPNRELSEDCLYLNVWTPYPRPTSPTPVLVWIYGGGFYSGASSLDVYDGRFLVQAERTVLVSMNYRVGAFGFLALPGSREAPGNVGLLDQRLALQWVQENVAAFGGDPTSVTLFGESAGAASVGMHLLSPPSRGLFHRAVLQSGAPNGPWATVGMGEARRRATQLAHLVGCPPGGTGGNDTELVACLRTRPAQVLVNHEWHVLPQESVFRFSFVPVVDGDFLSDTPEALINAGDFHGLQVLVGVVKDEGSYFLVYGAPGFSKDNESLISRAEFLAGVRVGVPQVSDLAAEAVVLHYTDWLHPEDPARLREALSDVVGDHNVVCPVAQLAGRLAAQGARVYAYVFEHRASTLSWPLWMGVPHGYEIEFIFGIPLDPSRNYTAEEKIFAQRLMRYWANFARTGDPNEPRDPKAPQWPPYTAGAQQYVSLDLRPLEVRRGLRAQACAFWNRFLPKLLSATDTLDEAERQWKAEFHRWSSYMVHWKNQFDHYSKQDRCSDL

Compound `COc1cc2c(cc1OC)C(OC(=O)CCCC(=O)O)=C(CC1CCN(Cc3ccccc3)CC1)C2` [Donepezil glutaryl enol ester, Donepezil-(Glutaryl) enol ester] showed an IC50 in series [1] of 830 nM.

`COc1cc2c(cc1OC)C(OC(=O)CCCC(=O)N[C@H](C(N)=O)C(C)C)=C(CC1CCN(Cc3ccccc3)CC1)C2` [Donepezil glutaryl valinamide, donepezil[glutaryl-(S)-valinamide]enol ester]: the “Simulated intestinal juice (2 h, 37° C.) (FaSSIF) % active drug generated” value in series [2] is under 2.0%. Further, in series [3], the “Simulated gastric juice (1 h, 37° C.) % active drug generated” value is given as under 2.0%. Moreover, the Frel in series [4] (individual animals) is 97% and 44% and 99% and 64% and 89%; in series [4] (mean), 79%; in series [5] (individual animals), 85% and 25% and 62% and 44% and 28%; in series [5] (mean) it was 49%. In addition, the “Simulated intestinal juice (2 h, 37° C.) (FeSSIF) % active drug generated” value in series [6] is under 2.0%.
